According to US11083714B2, “Selective anti-cancer agent effective for prevention and treatment” (Molecular International Research, Inc., priority 2018, dated 2021):
“Also recorded” adds a separate entry of the source.

Key:
PANC-1 tumors = test: Orthotopic PANC-1 luciferase tumors in nude mice; format: in vivo
Excerpt: FIG. 16. Animal Study. PANC-1 cells with luciferase gene were orthotopically implanted into the pancreas of nude mice and the tumors were monitored by live-animal imaging. Longitudinal tumor growth shown by quantification of all images in the treated group (lozenges, n=9) and the untreated group (squares, n=10). Tumor burden is represented by average total photon flux (top) and its log transform (bottom).
Human PANC-1 pancreatic cancer cells were transfected with the luciferase gene to enable imaging in vivo. These cells were transplanted into the pancreas of nude mice and, after 10 days, tumors were established in the mice and they were treated with de-ethylflavopereirine by oral gavage. Longitudinal tumor progress was followed by live-animal imaging. The results of this experiment are depicted in FIGS. 16 to 21.

[1] = Alcohol-induced chronic pancreatitis model; format: in vivo; conditions: mice given ethanol and compound in the daily diet
Excerpt: FIG. 29. Effects of de-ethylflavopereirine in a mice model of alcohol-induced chronic pancreatitis. Paraffin sections of the pancreas were stained with hematoxylin and eosin. […] This tissue protection was quantitated with an injury score (FIG. 29B). Ly6G was elevated four-fold in the pancreas of mice given ethanol while the number of neutrophils was not elevated in mice given ethanol and compound 13-9-1 (FIG. 29C).
Daily administration of ethanol to mice was followed by a binge of ethanol administration, a regimen relevant to human consumption. In the experimental group, de-ethylflavopereirine was included in the daily diet throughout the course of the experiment. There were two control groups: animals that were given no alcohol (negative control) and animals given alcohol without receiving the compound 13-9-1 (positive control). Following 10 days of alcohol treatment, the animals were gavaged with alcohol for 8 hours then euthanized, and their pancreatic tissues were collected. Pancreatic tissue sections were analyzed for histology and isolated RNA was used for quantitative PCR.

β-catenin = β-catenin localization in PANC-1 cells (Wnt signaling); format: cell-based
Excerpt: FIG. 28. Effect of de-ethylflavopereirine on β-catenin localization in the nucleus of PANC-1 cells. […] Cytoplasmic β-catenin levels were not affected under these conditions. Vinculin provided a marker for a cytoplasmic protein that is present in very low amounts in the nucleus.
Wnt pathway activation involves translocation of β-catenin from the cytoplasm into the nucleus and subsequent changes in transcription of targeted genes. Suppression of Wnt activation occurs when the translocation of β-catenin into the nucleus is suppressed. […] So de-ethylflavopereirine inhibits the growth of pancreatic cancer stem cells in part because it specifically suppresses Wnt signaling.

PANC-1 cancer stem cells = test: Tumor formation of PANC-1 cancer stem cells (FIG. 27); format: in vivo, mice; conditions: 2×10^5 pre-treated PANC-1 cells
Experimental: FIG. 27. Reduction of tumor formation by de-ethylflavopereirine. Compound 13-9-1 reduced tumor formation of PANC-1 cancer stem cells.
Mice were then treated with de-ethylflavopereirine for 20 days after injection. […] Maximum tumor formation rate reached 80% at day 39, which is a highly significant difference compared to control (P=0.001 by log-rank test).

PANC-1 cells [2] = test: Spheroid formation (cancer stem cells); format: cell-based
Experimental: FIG. 22. PANC-1 cell suspensions were treated at concentrations of 0 μM (negative control), 2.5 μM, 5.0 μM, and 10.0 μM de-ethylflavopereirine then examined for the presence of spheroids.
FIG. 23. Primary spheroids from first round were collected and seeded for secondary spheroid formation. Following treatment with concentrations of 0 μM (negative control), 2.5 μM, 5.0 μM, and 10.0 μM de-ethylflavopereirine, suspensions were examined.
In vitro, cancer stem cells form spheroids: clusters of cancer cells surrounding a cancer stem cell. Inhibition of spheroid formation is a test for anti-cancer stem cell activity of a compound.

PANC-1 cells [3] = test: CD24/CD44/EpCam triple positive cells by flow cytometry; format: cell-based; conditions: 2.5, 5, 10 μM
Experimental: FIG. 24. De-ethylflavopereirine decreased the percentage of cancer stem cells in a pancreatic cancer cell population (24 hours). The panels show CD44 (PE-Cy7) positive and EpCam (APC) positive cells in the CD24 (PE) gate at concentrations of 0 μM (upper left), 2.5 μM (upper right), 5 μM (lower left), and 10 μM (lower right) de-ethylflavopereirine after 24 hr. “Q1”=CD24^+/CD44^+, “Triple+”=CD24^+/CD44^+/EpCam^+, “Q3”=CD24^+, and “Q4”=CD24^+/EpCam^+.
FIG. 25. De-ethylflavopereirine decreased the percentage of cancer stem cells in a pancreatic cancer cell population (48 hours). The panels show CD44 (PE-Cy7) positive and EpCam (APC) positive cells in the CD24 (PE) gate at concentrations of 0 μM (upper left), 2.5 μM (upper right), 5 μM (lower left), and 10 μM (lower right) de-ethylflavopereirine after 48 hr. “Q1”=CD24^+/CD44^+, “Triple+”=CD24^+/CD44^+/EpCam^+, “Q3”=CD24^+, and “Q4”=CD24^+/EpCam^+.
Cancer stem cells can be identified by specific cell-surface markers. A combination of three markers CD24, CD44, and EpCam is used for detection of pancreatic cancer stem cells. These markers can be labeled by different fluorophores and detected simultaneously by flow cytometry. Triple positive cells (i.e., cells that express all three markers) are regarded as pancreatic cancer stem cells. De-ethylflavopereirine reduced the percentage of pancreatic cancer stem cells in pancreatic cancer cell populations. PANC-1 cells were treated with 2.5 μM, 5.0 μM, and 10 μM concentrations of the compound for 24 hours or 48 hours. Triple positive cells were identified in quadrant Q2 (“Triple+”) of the flow cytometry output.

## c1ccc2c(c1)[nH]c1c2cc[n+]2ccccc12 [Compound 13-9-1, 12H-indolo[2,3-a]quinolizin-5-ium]
PANC-1 tumors; day 0 through day 40
  body weight compared with untreated control group: indistinguishable
PANC-1 tumors; oral gavage
  mice whose tumors were completely abolished: 22%
PANC-1 tumors; oral gavage, treated (n=9) vs untreated (n=10)
  anti-tumor effect by tumor burden (total photon flux): significant
PANC-1 tumors; oral gavage, listed as de-ethylflavopereirine
  mice whose tumors were completely abolished (number of animals): 2/9 and two of 21
PANC-1 tumors; treated vs untreated
  examination of internal organs: failed to reveal any toxic effects
  final tumor weights at necropsy: statistically significant reduction
  metastatic lesions at necropsy: reduced
[1]
  Ly6G level / number of neutrophils in the pancreas: not elevated
  injury score: completely prevented injury
  pancreatic tissue damage (histology): prevented; also recorded: no tissue damage
[1]; listed as de-ethylflavopereirine
  Ly6G level / number of neutrophils in the pancreas: completely normal Ly6G level
β-catenin; 24 and 48 hr
  cytoplasmic β-catenin levels: not affected
β-catenin; 24 hr post-treatment
  β-catenin levels in the nucleus: no effect
β-catenin; 48 hr post-treatment
  β-catenin levels in the nucleus: significantly reduced
PANC-1 cancer stem cells; Day 20
  tumor formation: 55%
PANC-1 cancer stem cells; Day 39
  maximum tumor formation rate: 80%
PANC-1 cells [2]; 2.5 μM
  secondary spheroid formation: significant inhibition
PANC-1 cells [2]; 5 μM and 10 μM
  primary spheroid formation: significantly inhibited primary spheroid formation
  secondary spheroid formation: completely inhibited
PANC-1 cells [3]; 24 hr, listed as De-ethylflavopereirine
  CD24+/CD44+/EpCam+ (triple positive) cell population: Reduction
PANC-1 cells [3]; 24 hr, listed as de-ethylflavopereirine
  CD24+/CD44+/EpCam+ (triple positive) cell population: reduced the CD24^+/CD44^+/EpCam^+ cell population
PANC-1 cells [3]; 48 hr
  CD24+/CD44+/EpCam+ (triple positive) cell population: reduced the CD24^+/CD44^+/EpCam^+ cell population
